Key:
[1] = biological target: GDP-bound NRAS wild-type protein (Homo sapiens, UniProt P01111); assay: Binding to NRAS by surface plasmon resonance (SPR), Single Cycle Kinetics; details: KD ratio NRAS/KRAS, class symbols
[2] = biological target: GDP-bound HRAS wild-type protein (Homo sapiens, UniProt P01112); assay: Binding to HRAS by surface plasmon resonance (SPR), Single Cycle Kinetics; details: KD ratio HRAS/KRAS, class symbols
GDP-bound HRAS wild-type protein, sequence (P01112 whole entry): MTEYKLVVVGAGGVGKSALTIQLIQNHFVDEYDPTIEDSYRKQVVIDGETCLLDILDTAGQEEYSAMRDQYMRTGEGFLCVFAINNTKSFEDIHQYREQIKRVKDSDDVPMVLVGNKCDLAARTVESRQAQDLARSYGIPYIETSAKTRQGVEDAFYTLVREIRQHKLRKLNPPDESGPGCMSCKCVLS

GDP-bound NRAS wild-type protein, sequence (P01111 whole entry): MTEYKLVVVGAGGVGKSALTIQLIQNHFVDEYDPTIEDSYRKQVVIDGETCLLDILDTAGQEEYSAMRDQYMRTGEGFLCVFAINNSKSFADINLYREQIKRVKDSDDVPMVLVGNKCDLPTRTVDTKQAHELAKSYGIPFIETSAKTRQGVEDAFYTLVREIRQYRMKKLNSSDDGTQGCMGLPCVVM

| SMILES | NRAS/KRAS (ratio of KD value with respect to GDP-bound NRAS wild-type protein to KD value with respect to KRAS) [1] | HRAS/KRAS (ratio of KD value with respect to GDP-bound HRAS wild-type protein to KD value with respect to KRAS) [2] |
| --- | --- | --- |
| CCC[C@H]1C(=O)N[C@@H]([C@@H](C)CC)C(=O)N(C2CC2)CC(=O)N(C)[C@H]2C/C=C\CCN(C2=O)[C@@H](Cc2ccc(C(F)(F)F)cc2)C(=O)N(C)CC(=O)N[C@@H](CCc2ccc(Cl)c(Cl)c2)C(=O)N2C[C@H](OCC)C[C@H]2C(=O)NC2(CC(C)(C)C2)C(=O)N(C)[C@@H](CC2CCC2)C(=O)N(C)[C@H](C(=O)N(C)C)CC(=O)N1C [PP2819] | A (a compound having 10 or more and less than 20 is denoted as A) | A (a compound having 10 or more and less than 20 is denoted as A) |
| CCC(CC)[C@H]1C(=O)N(C)[C@H](C(=O)N(C)C)CC(=O)N(C)[C@@H](COC)C(=O)N[C@@H]([C@@H](C)CC)C(=O)N(C)CC(=O)N(C)[C@H]2C/C=C\CCN(C2=O)[C@@H](Cc2ccc(C)cc2)C(=O)N(C)CC(=O)N[C@@H](CCc2ccc(Cl)c(Cl)c2)C(=O)N2CC3(CC3)C[C@H]2C(=O)N(C)C2(CC(C)(C)C2)C(=O)N1C [PP2820] | AA (a compound having 20 or more is denoted as AA) | A (a compound having 10 or more and less than 20 is denoted as A) |
| CCO[C@@H]1C[C@H]2C(=O)NC3(CC(C)(C)C3)C(=O)N(C)[C@@H](CC3CCC3)C(=O)N(C)[C@H](C(=O)N(C)C)CC(=O)N(C)[C@@H](COC)C(=O)N[C@@H]([C@@H](C)CC)C(=O)N(C3CC3)CC(=O)N(C)[C@H]3C/C=C\CCN(C3=O)[C@@H](Cc3ccc(C(F)(F)F)cc3)C(=O)N(C)CC(=O)N[C@@H](CCc3ccc(Cl)c(Cl)c3)C(=O)N2C1 [PP2821] | A (a compound having 10 or more and less than 20 is denoted as A) | A (a compound having 10 or more and less than 20 is denoted as A) |
| CCO[C@@H]1C[C@H]2C(=O)NC3(CC(C)(C)C3)C(=O)N(C)[C@@H](C3CCCC3)C(=O)N(C)[C@H](C(=O)N(C)CC)CC(=O)N(C)[C@@H](CC)C(=O)N[C@@H]([C@@H](C)CC)C(=O)N(C)CC(=O)N(C)[C@H]3C/C=C\CCN(C3=O)[C@@H](Cc3ccc(C(F)(F)F)cc3)C(=O)N(C)CC(=O)N[C@@H](CCc3ccc(Cl)c(Cl)c3)C(=O)N2C1 [PP2822] | A (a compound having 10 or more and less than 20 is denoted as A) | A (a compound having 10 or more and less than 20 is denoted as A) |
| CCO[C@@H]1C[C@H]2C(=O)NC3(CC(C)(C)C3)C(=O)N(C)[C@@H](C3CCCC3)C(=O)N(C)[C@H](C(=O)N(C)CC)CC(=O)N(C)[C@@H](CC)C(=O)N[C@@H]([C@@H](C)CC)C(=O)N(C)CC(=O)N(C)[C@H]3C/C=C\CCN(C3=O)[C@@H](Cc3ccc(C(F)(F)F)cc3)C(=O)N(C)CC(=O)N[C@@H](CCc3ccc(C(F)(F)F)c(Cl)c3)C(=O)N2C1 [PP2823] | A (a compound having 10 or more and less than 20 is denoted as A) | A (a compound having 10 or more and less than 20 is denoted as A) |
| CCO[C@@H]1C[C@H]2C(=O)NC3(CCC3)C(=O)N(C)[C@@H](C3CCCC3)C(=O)N(C)[C@H](C(=O)N(C)CC)CC(=O)N(C)[C@@H](CC3CCC3)C(=O)N[C@@H]([C@@H](C)CC)C(=O)N(C)CC(=O)N(C)[C@H]3C/C=C\CCN(C3=O)[C@@H](Cc3ccc(C(F)(F)F)cc3)C(=O)N(C)CC(=O)N[C@@H](CCc3ccc(Cl)c(Cl)c3)C(=O)N2C1 [PP2824] | A (a compound having 10 or more and less than 20 is denoted as A) | A (a compound having 10 or more and less than 20 is denoted as A) |
| CCO[C@@H]1C[C@H]2C(=O)NC3(CCC3)C(=O)N(C)[C@@H](C3CCCC3)C(=O)N(C)[C@H](C(=O)N(C)CC)CC(=O)N(C)[C@@H](CC3CCC3)C(=O)N[C@@H]([C@@H](C)CC)C(=O)N(C)CC(=O)N(C)[C@H]3C/C=C\CCN(C3=O)[C@@H](Cc3ccc(C(F)(F)F)cc3)C(=O)N(C)CC(=O)N[C@@H](CCc3ccc(C(F)(F)F)c(OC)c3)C(=O)N2C1 [PP2825] | A (a compound having 10 or more and less than 20 is denoted as A) | B (a compound having 3 or more and less than 10 is denoted as B) |
| CCO[C@@H]1C[C@H]2C(=O)NC3(CCC3)C(=O)N(C)[C@@H](C3CCCC3)C(=O)N(C)[C@H](C(=O)N(C)CC)CC(=O)N(C)[C@@H](CC3CCC3)C(=O)N[C@@H]([C@@H](C)CC)C(=O)N(C)CC(=O)N(C)[C@H]3C/C=C\CCN(C3=O)[C@@H](Cc3ccc(C(F)(F)F)cc3)C(=O)N(C)CC(=O)N[C@@H](CCc3ccc(C(F)(F)F)c(Cl)c3)C(=O)N2C1 [PP2826] | A (a compound having 10 or more and less than 20 is denoted as A) | A (a compound having 10 or more and less than 20 is denoted as A) |
| CCO[C@@H]1C[C@H]2C(=O)NC3(CC(C)(C)C3)C(=O)N(C)[C@@H](C3CCCC3)C(=O)N(C)[C@H](C(=O)N(C)CC)CC(=O)N(C)[C@@H](CC(C)C)C(=O)N[C@@H]([C@@H](C)CC)C(=O)N(C)CC(=O)N(C)[C@H]3C/C=C\CCN(C3=O)[C@@H](Cc3ccc(C(F)F)cc3)C(=O)N(C)CC(=O)N[C@@H](CCc3ccc(Cl)c(Cl)c3)C(=O)N2C1 [PP2827] | A (a compound having 10 or more and less than 20 is denoted as A) | B (a compound having 3 or more and less than 10 is denoted as B) |
| CCO[C@@H]1C[C@H]2C(=O)NC3(CC(C)(C)C3)C(=O)N(C)[C@@H](C3CCCC3)C(=O)N(C)[C@H](C(=O)N(C)CC)CC(=O)N(C)[C@@H](CC(C)C)C(=O)N[C@@H]([C@@H](C)CC)C(=O)N(C)CC(=O)N(C)[C@H]3C/C=C\CCN(C3=O)[C@@H](Cc3ccc(C(F)F)cc3)C(=O)N(C)CC(=O)N[C@@H](CCc3ccc(C(F)(F)F)c(OC)c3)C(=O)N2C1 [PP2828] | A (a compound having 10 or more and less than 20 is denoted as A) | A (a compound having 10 or more and less than 20 is denoted as A) |
| CCO[C@@H]1C[C@H]2C(=O)NC3(CC(C)(C)C3)C(=O)N(C)[C@@H](C3CCCC3)C(=O)N(C)[C@H](C(=O)N(C)CC)CC(=O)N(C)[C@@H](CC(C)C)C(=O)N[C@@H]([C@@H](C)CC)C(=O)N(C)CC(=O)N(C)[C@H]3C/C=C\CCN(C3=O)[C@@H](Cc3ccc(C(F)F)cc3)C(=O)N(C)CC(=O)N[C@@H](CCc3ccc(C(F)(F)F)c(Cl)c3)C(=O)N2C1 [PP2829] | A (a compound having 10 or more and less than 20 is denoted as A) | A (a compound having 10 or more and less than 20 is denoted as A) |
| CCCOC[C@H]1C(=O)N[C@@H]([C@@H](C)CC)C(=O)N(C)CC(=O)N(C)[C@H]2C/C=C\CCN(C2=O)[C@@H](Cc2ccc(C(F)(F)F)cc2)C(=O)N(C)CC(=O)N[C@@H](CCc2ccc(Cl)c(Cl)c2)C(=O)N2C[C@H](OCC)C[C@H]2C(=O)NC2(CCC2)C(=O)N(C)[C@@H](C2CCCC2)C(=O)N(C)[C@H](C(=O)N(C)CCC)CC(=O)N1C [PP2830] | A (a compound having 10 or more and less than 20 is denoted as A) | A (a compound having 10 or more and less than 20 is denoted as A) |
| CCCOC[C@H]1C(=O)N[C@@H]([C@@H](C)CC)C(=O)N(C)CC(=O)N(C)[C@H]2C/C=C\CCN(C2=O)[C@@H](Cc2ccc(C(F)(F)F)cc2)C(=O)N(C)CC(=O)N[C@@H](CCc2ccc(C(F)(F)F)c(Cl)c2)C(=O)N2C[C@H](OCC)C[C@H]2C(=O)NC2(CCC2)C(=O)N(C)[C@@H](C2CCCC2)C(=O)N(C)[C@H](C(=O)N(C)CCC)CC(=O)N1C [PP2831] | A (a compound having 10 or more and less than 20 is denoted as A) | A (a compound having 10 or more and less than 20 is denoted as A) |
| CCO[C@@H]1C[C@H]2C(=O)NC3(CC(C)(C)C3)C(=O)N(C)[C@@H](C3CCCC3)C(=O)N(C)[C@H](C(=O)N(C)C)CC(=O)N(C)[C@@H](CC(F)(F)F)C(=O)N[C@@H]([C@@H](C)CC)C(=O)N(C)CC(=O)N(C)[C@H]3C/C=C\CCN(C3=O)[C@@H](Cc3ccc(C(F)(F)F)cc3)C(=O)N(C)CC(=O)N[C@@H](CCc3ccc(Cl)c(Cl)c3)C(=O)N2C1 [PP2832] | A (a compound having 10 or more and less than 20 is denoted as A) | A (a compound having 10 or more and less than 20 is denoted as A) |
| CCO[C@@H]1C[C@H]2C(=O)NC3(CC(C)(C)C3)C(=O)N(C)[C@@H](C3CCCC3)C(=O)N(C)[C@H](C(=O)N(C)C)CC(=O)N(C)[C@@H](CC(F)(F)F)C(=O)N[C@@H]([C@@H](C)CC)C(=O)N(C)CC(=O)N(C)[C@H]3C/C=C\CCN(C3=O)[C@@H](Cc3ccc(C(F)(F)F)cc3)C(=O)N(C)CC(=O)N[C@@H](CCc3ccc(C(F)(F)F)c(Cl)c3)C(=O)N2C1 [PP2833] | A (a compound having 10 or more and less than 20 is denoted as A) | A (a compound having 10 or more and less than 20 is denoted as A) |
